{"source": "patent US12697368B2", "about": "“TSG6 polypeptide fragment for dry eye disease” (The University of Manchester, priority 2019, dated 2026)", "key": {"rat eyes": {"test_system": "rat eyes", "details": "ethanol application and mechanical debridement; cited from earlier work"}, "NOD.B10.H2b mice": {"test_system": "NOD.B10.H2b mice", "details": "recombinant TSG-6 (0.1%) topical 4 times a day, 1 week; vs 0.05% cyclosporine twice a day; cited from earlier work"}, "[1]": {"test": "Aggregation state in PBS by dynamic light scattering (DLS)", "format": "physicochemical", "method": "(§1) The solubility and aggregation state of full-length TSG-6 and LINK_TSG6 in PBS were compared using UV spectrophotometry and dynamic light scattering (DLS) at a range of concentrations. […] The full-length protein had much lower solubility with less than 40% of the protein remaining in solution at 0.4, 0.8, 1.6. and 3.2 mg/ml."}, "[2]": {"test": "Solubility in PBS by UV spectrophotometry", "format": "physicochemical", "method": "as §1"}, "[3]": {"details": "interaction is cooperative; cited from earlier work"}}, "data": [{"substance": "full-length TSG-6: full length human recombinant TSG-6 protein (R&D Systems), ~35 kDa secreted product of TNF-stimulated gene-6", "values": [{"measurement": "corneal opacity as compared to a PBS control", "setting": "rat eyes", "value": "reduced"}, {"measurement": "neovascularization as compared to a PBS control", "setting": "rat eyes", "value": "reduced"}, {"measurement": "efficacy in inflammation mediated dry eye compared with cyclosporine eye drops", "setting": "NOD.B10.H2b mice", "value": "as effective"}, {"measurement": "aggregation", "setting": "[1]; 0.2, 0.4, 0.8, 1.6 and 3.2 mg/ml", "value": "highly aggregated"}, {"measurement": "size of aggregates formed", "setting": "[1]; 1.6 and 3.2 mg/ml, DLS measurements out of range", "value": "greater than 25 million"}, {"measurement": "protein remaining in solution", "setting": "[2]; PBS, 0.4, 0.8, 1.6 and 3.2 mg/ml", "value": "less than 40%"}, {"measurement": "solubility and stability in solution", "setting": "[2]; general statement", "value": "insoluble and prone to aggregation"}, {"measurement": "binding to HA compared with LINK_TSG6", "setting": "[3]", "value": "binds more effectively"}]}]}
